According to PubChem BioAssay AID1963432 (Molecular Pharmacology Branch, DTP, NCI, 2024):

System: SYO-1 complex spheroid growth, percent test/control
Test: Anticancer human tumor SYO-1 cell line growth inhibition [Asc];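 further: compound exposure lasted 7 days after spheroids grew 3 days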;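 on viability, T/C: 100% = DMSO vehicle control viability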
Conditions: for IC50: curve of first compound; for viability, T/C: stronger effect = lower value
How it was run: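 Spheroid model: tumor line + HUVEC + hMSC. Single agents and combinations; top conc. at/near clinical Cmax (10 microM if undetermined), half-log dilutions. DMSO stocks at 800-fold test concentration.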

[1] = second compound 0.0316 µM, first compound 0.0316 µM
[2] = second compound 0.0316 µM, first compound 0.1 µM
[3] = second compound 0.0316 µM, first compound 0.316 µM
[4] = second compound 0.0316 µM, first compound 1 µM
[5] = second compound 0.0316 µM, first compound 3.16 µM
[6] = second compound 0.0316 µM, first compound 10 µM
[7] = second compound 0.1 µM, first compound 0.0316 µM
[8] = second compound 0.1 µM, first compound 0.1 µM
[9] = second compound 0.1 µM, first compound 0.316 µM
[10] = second compound 0.1 µM, first compound 1 µM
[11] = second compound 0.1 µM, first compound 3.16 µM
[12] = second compound 0.1 µM, first compound 10 µM
[13] = second compound 0.316 µM, first compound 0.0316 µM
[14] = second compound 0.316 µM, first compound 0.1 µM
[15] = second compound 0.316 µM, first compound 0.316 µM
[16] = second compound 0.316 µM, first compound 1 µM
[17] = second compound 0.316 µM, first compound 3.16 µM
[18] = second compound 0.316 µM, first compound 10 µM
[19] = second compound 1 µM, first compound 0.0316 µM
[20] = second compound 1 µM, first compound 0.1 µM
[21] = second compound 1 µM, first compound 0.316 µM
[22] = second compound 1 µM, first compound 1 µM
[23] = second compound 1 µM, first compound 3.16 µM
[24] = second compound 1 µM, first compound 10 µM
[25] = second compound 3.16 µM, first compound 0.0316 µM
[26] = second compound 3.16 µM, first compound 0.1 µM
[27] = second compound 3.16 µM, first compound 0.316 µM
[28] = second compound 3.16 µM, first compound 1 µM
[29] = second compound 3.16 µM, first compound 3.16 µM
[30] = second compound 3.16 µM, first compound 10 µM
[31] = second compound 10 µM, first compound 0.0316 µM
[32] = second compound 10 µM, first compound 0.1 µM
[33] = second compound 10 µM, first compound 0.316 µM
[34] = second compound 10 µM, first compound 1 µM
[35] = second compound 10 µM, first compound 3.16 µM
[36] = second compound 10 µM, first compound 10 µM

`C=C(F)C(=O)N1CCN(c2nc(OCC3CCCN3C)nc3c2CCN(c2cccc4cccc(Cl)c24)C3)CC1CC#N` (stereo unspecified) + Cc1c(S(C)(=O)=O)c(-c2cc(F)cc(N3CCN(c4ccc(NS(=O)(=O)c5ccc(NC(CCN6CCC(C(=O)OCCCP(=O)(O)O)CC6)CSc6ccccc6)c(S(=O)(=O)C(F)(F)F)c5)cc4)CC3)c2)c(-c2ccc(Cl)cc2)n1C(C)C gave an IC50 (second compound 0.0316 µM) of 4950 nM, an IC50 (second compound 0.1 µM) of 3360 nM and an IC50 (second compound 0.316 µM) of 1740 nM. The IC50 (second compound 1 µM) was 1730 nM, the IC50 (second compound 3.16 µM) was 1670 nM and the IC50 (second compound 10 µM) was 1590 nM. It also gave a viability, T/C [1] of 97.2%, a viability, T/C [2] of 87.6% and a viability, T/C [3] of 97.8%. It also gave a viability, T/C [4] of 101%, a viability, T/C [5] of 81.6% and a viability, T/C [6] of 0.62%. It also gave a viability, T/C [7] of 92.7%, a viability, T/C [8] of 96.7% and a viability, T/C [9] of 96.3%. For the same molecule, the viability, T/C [10] was 98.3%, the viability, T/C [11] was 52.8% and the viability, T/C [12] was 0.77%. The viability, T/C [13] was 98.8%, the viability, T/C [14] was 97% and the viability, T/C [15] was 97.3%. For the same molecule, the viability, T/C [16] was 95.1%, the viability, T/C [17] was 1.32% and the viability, T/C [18] was 0.42%. The viability, T/C [19] was 89.6%, the viability, T/C [20] was 89.7% and the viability, T/C [21] was 88.4%. The viability, T/C [22] was 109%, the viability, T/C [23] was 0.8% and the viability, T/C [24] was 1.26%. It also gave a viability, T/C [25] of 92.9%, a viability, T/C [26] of 78.6% and a viability, T/C [27] of 87.8%. It also gave a viability, T/C [28] of 97.6%, a viability, T/C [29] of 0.94% and a viability, T/C [30] of 1.06%. For the same molecule, the viability, T/C [31] was 89.5%, the viability, T/C [32] was 78.9% and the viability, T/C [33] was 71.5%. It also gave a viability, T/C [34] of 91.6%, a viability, T/C [35] of 0.9% and a viability, T/C [36] of 0.74%.
For `C=CC(=O)N1CCN(c2nc(=O)n(-c3c(C)ccnc3C(C)C)c3nc(-c4c(O)cccc4F)c(F)cc23)C(C)C1` (stereo unspecified) + Cc1c(S(C)(=O)=O)c(-c2cc(F)cc(N3CCN(c4ccc(NS(=O)(=O)c5ccc(NC(CCN6CCC(C(=O)OCCCP(=O)(O)O)CC6)CSc6ccccc6)c(S(=O)(=O)C(F)(F)F)c5)cc4)CC3)c2)c(-c2ccc(Cl)cc2)n1C(C)C, the IC50 (second compound 0.0316 µM) was > 10000 nM, the IC50 (second compound 0.1 µM) was > 10000 nM and the IC50 (second compound 0.316 µM) was > 10000 nM. The IC50 (second compound 1 µM) was > 10000 nM, the IC50 (second compound 3.16 µM) was > 10000 nM and the IC50 (second compound 10 µM) was > 10000 nM. It also gave a viability, T/C [1] of 105%, a viability, T/C [2] of 100% and a viability, T/C [3] of 100%. For the same molecule, the viability, T/C [4] was 106%, the viability, T/C [5] was 103% and the viability, T/C [6] was 90.7%. It also gave a viability, T/C [7] of 114%, a viability, T/C [8] of 103% and a viability, T/C [9] of 93.4%. It also gave a viability, T/C [10] of 99.9%, a viability, T/C [11] of 99.7% and a viability, T/C [12] of 87%. The viability, T/C [13] was 98.3%, the viability, T/C [14] was 96.9% and the viability, T/C [15] was 101%. It also gave a viability, T/C [16] of 102%, a viability, T/C [17] of 88.3% and a viability, T/C [18] of 83.4%. It also gave a viability, T/C [19] of 94.4%, a viability, T/C [20] of 94% and a viability, T/C [21] of 99.2%. The viability, T/C [22] was 100%, the viability, T/C [23] was 90.7% and the viability, T/C [24] was 83.6%. For the same molecule, the viability, T/C [25] was 91.5%, the viability, T/C [26] was 86.5% and the viability, T/C [27] was 93.2%. The viability, T/C [28] was 96.5%, the viability, T/C [29] was 87.9% and the viability, T/C [30] was 81%. The viability, T/C [31] was 90%, the viability, T/C [32] was 81.4% and the viability, T/C [33] was 83.9%. It also gave a viability, T/C [34] of 79.5%, a viability, T/C [35] of 89.9% and a viability, T/C [36] of 76.1%.
`CCN1C(C(=O)NC23CCC(C(=O)O)(CC2)CC3)C(c2cccc(Cl)c2F)C2(C(=O)Nc3cc(Cl)ccc32)C12CCCCC2` (stereo unspecified) + Cc1c(S(C)(=O)=O)c(-c2cc(F)cc(N3CCN(c4ccc(NS(=O)(=O)c5ccc(NC(CCN6CCC(C(=O)OCCCP(=O)(O)O)CC6)CSc6ccccc6)c(S(=O)(=O)C(F)(F)F)c5)cc4)CC3)c2)c(-c2ccc(Cl)cc2)n1C(C)C gave an IC50 (second compound 0.0316 µM) of 131 nM, an IC50 (second compound 0.1 µM) of 127 nM and an IC50 (second compound 0.316 µM) of 90.6 nM. For the same molecule, the IC50 (second compound 1 µM) was 64.8 nM, the IC50 (second compound 3.16 µM) was 44.3 nM and the IC50 (second compound 10 µM) was 35.7 nM. It also gave a viability, T/C (second compound 0.0316 µM, first compound 0.00949 µM) of 97.6%, a viability, T/C (second compound 0.0316 µM, first compound 0.03 µM) of 88.5% and a viability, T/C (second compound 0.0316 µM, first compound 0.0949 µM) of 65%. The viability, T/C (second compound 0.0316 µM, first compound 0.3 µM) was 13.6%, the viability, T/C (second compound 0.0316 µM, first compound 0.949 µM) was 2.07% and the viability, T/C (second compound 0.0316 µM, first compound 3 µM) was 0.87%. It also gave a viability, T/C (second compound 0.1 µM, first compound 0.00949 µM) of 91.7%, a viability, T/C (second compound 0.1 µM, first compound 0.03 µM) of 80.9% and a viability, T/C (second compound 0.1 µM, first compound 0.0949 µM) of 64.2%. It also gave a viability, T/C (second compound 0.1 µM, first compound 0.3 µM) of 10.4%, a viability, T/C (second compound 0.1 µM, first compound 0.949 µM) of 1.25% and a viability, T/C (second compound 0.1 µM, first compound 3 µM) of 0.54%. For the same molecule, the viability, T/C (second compound 0.316 µM, first compound 0.00949 µM) was 86.6%, the viability, T/C (second compound 0.316 µM, first compound 0.03 µM) was 78.7% and the viability, T/C (second compound 0.316 µM, first compound 0.0949 µM) was 49.5%. It also gave a viability, T/C (second compound 0.316 µM, first compound 0.3 µM) of 4.49%, a viability, T/C (second compound 0.316 µM, first compound 0.949 µM) of 0.85% and a viability, T/C (second compound 0.316 µM, first compound 3 µM) of 0.62%. For the same molecule, the viability, T/C (second compound 1 µM, first compound 0.00949 µM) was 87.4%, the viability, T/C (second compound 1 µM, first compound 0.03 µM) was 77.6% and the viability, T/C (second compound 1 µM, first compound 0.0949 µM) was 36.4%. The viability, T/C (second compound 1 µM, first compound 0.3 µM) was 4.69%, the viability, T/C (second compound 1 µM, first compound 0.949 µM) was 0.8% and the viability, T/C (second compound 1 µM, first compound 3 µM) was 0.39%. It also gave a viability, T/C (second compound 3.16 µM, first compound 0.00949 µM) of 77.5%, a viability, T/C (second compound 3.16 µM, first compound 0.03 µM) of 63.4% and a viability, T/C (second compound 3.16 µM, first compound 0.0949 µM) of 23.8%. The viability, T/C (second compound 3.16 µM, first compound 0.3 µM) was 2.4%, the viability, T/C (second compound 3.16 µM, first compound 0.949 µM) was 0.61% and the viability, T/C (second compound 3.16 µM, first compound 3 µM) was 0.43%. It also gave a viability, T/C (second compound 10 µM, first compound 0.00949 µM) of 75.9%, a viability, T/C (second compound 10 µM, first compound 0.03 µM) of 56.7% and a viability, T/C (second compound 10 µM, first compound 0.0949 µM) of 12.4%. The viability, T/C (second compound 10 µM, first compound 0.3 µM) was 2.09%, the viability, T/C (second compound 10 µM, first compound 0.949 µM) was 0.69% and the viability, T/C (second compound 10 µM, first compound 3 µM) was 0.46%.
